Assay results published in paper PMC6149664, “Synthesis and In Vitro Antimycobacterial Activity of Novel N-Arylpiperazines Containing an Ethane-1,2-diyl Connecting Chain” (Molecules : A Journal of Synthetic Chemistry and Natural …, 2017).
Where two headings read alike, the source gives them in different places.

Tests used:
M. kansasii CIT11/06 = assay: In vitro antimycobacterial MIC (IC90), alamarBlue 96-well assay in Middlebrook broth; assay type: cell-based, Mycobacterium kansasii; settings: Mycobacterium kansasii, CIT11/06, 168 h, 7 days incubation, read-out: MIC, MK CIT11/06
[1] = tested on: M. avium CNCTC My 330/80 (identical with ATCC 25291); assay: In vitro antimycobacterial MIC, dilution-micromethod in Šula semisynthetic medium; assay type: cell-based; settings: Mycobacterium avium
[2] = UV/Vis spectra of methanolic solutions (log ε); assay type: physicochemical; settings: methanolic solution c = 3.0 × 10^−5 M; for log ε2(Ch-T): charge-transfer maximum λ2(Ch-T) = 238–240 nm; for log ε1: λ1 = 208–210 nm; for log ε3: λ3 = 274–276 nm
Description: Electronic properties of the inspected compounds 8a–h (Table 3) were characterized by logarithms of molar absorption coefficients (log ε) of their methanolic solutions (c = 3.0 × 10^−5 M) investigated in the UV/Vis region of the spectrum.
The UV/Vis spectra of methanolic solutions of the analyzed compounds 8a–h (c = 3.0 × 10^−5 M) were estimated on the 8452A Diode Array spectrophotometer HP-8452A (Hewlett Packard, Palo Alto, CA, USA). Methanol for UV-spectroscopy (Merck) was used for the preparation of these solutions.
Results of the UV/Vis analyses were collected and stored digitally using the ChemStation controller software (Agilent Technologies, Waldbronn, Germany). The HP-8452A apparatus measured a complete range of a spectrum from 190 nm to 820 nm.
The log ε values characterizing methanolic solutions of the analyzed compounds 8a–h (c = 3.0 × 10^−5 M) were estimated at λ1 = 208–210 nm, λ2(Ch-T) = 238–240 nm and λ3 = 274–276 nm (Table 3), respectively, in a near ultraviolet (quarz) region of the electromagnetic spectrum between 200 and 400 nm. The log ε values for the observed absorption maxima were calculated according to the Lambert-Beer´s law discussed in [47], for example, and expressed by Equation (8):A = ε × c × l(8) where the A parameter represented the absorbance of a solution, the descriptor ε was a molar absorption coefficient (in the L/mol/cm units) and l was the path length (in the cm units).

[3] = tested on: M. avium intracellulare ATCC 13950; assay: In vitro antimycobacterial MIC (IC90), alamarBlue 96-well assay in Middlebrook broth; assay type: cell-based, Mycobacterium avium intracellulare; settings: Mycobacterium avium, ATCC13950, 168 h, 7 days incubation, read-out: MIC, MAI ATCC 13950
[4] = tested on: M. kansasii CNCTC My 235/80 (identical with ATCC 12478); assay: In vitro antimycobacterial MIC, dilution-micromethod in Šula semisynthetic medium; assay type: cell-based, Mycobacterium kansasii; settings: Mycobacterium kansasii, read-out: MIC, MK My 235/80
[5] = tested on: M. kansasii 6 509/96 clinical isolate; assay: as above; assay type: cell-based; settings: Mycobacterium kansasii, read-out: MIC, MK 6 509/96
[6] = assay type: physicochemical; parameters: key to RM (RP-TLC): RM = log(1/Rf - 1), from Rf in HCl/acetone mobile phase
Protocol: In the RP-TLC, silica gel plates impregnated by a hand with a variously concentrated silicone oil in heptane (a strong hydrophobic agent) were used as a non-polar stationary phase. Optimal differences in RM values within both homological groups 8a–d and 8e–h were observed if 1% silicone oil in heptane was chosen (Tables 1 and S1 in Supplementary Materials).
The RM values were calculated according to Equation (5) from the Rf parameters observed in a SM mobile phase: hydrochloric acid (c = 1.0 M)/acetone (4:1, v/v):RM = log (1/Rf – 1)(5)
For the experiments, aluminium sheets pre-coated with silica gel 60 F254 (0.25 mm thickness; Merck) were impregnated by a variously concentrated silicone oil in heptane, which ranged from 1% to 5%. The plates were separately spotted with 2 µL of methanolic solutions of each compound (c = 1 mg/mL), starting points were 1 cm from a bottom edge of these plates. The chromatographic plates were developed in glass developing chambers saturated for 30 min by the SM mobile phase. Development was carried out upon 15 cm from a starting line by an ascending technique. After being developed, the plates were dried at room temperature. Detection of zones was performed under iodine vapours/UV light at λ = 254 nm. Each experiment was run in triplicate at 21 °C, the RM values of analytes were calculated separately for each run.
Optimal differences in RM values within both homological groups 8a–d and 8e–h were observed if 1% silicone oil in heptane was chosen. The Rfs were found in a range from 0.19 (8h) to 0.78 (8a; Table 1). All the calculated average RM values were summarized in Table S1 (Supplementary Materials).

[7] = tested on: M. tuberculosis CNCTC My 331/88 (identical with H37Rv and ATCC 2794); assay: In vitro antimycobacterial MIC, dilution-micromethod in Šula semisynthetic medium; assay type: cell-based; settings: Mycobacterium tuberculosis
[8] = tested on: M. avium hominissuis CIT10/08; assay: In vitro antimycobacterial MIC (IC90), alamarBlue 96-well assay in Middlebrook broth; assay type: cell-based, Mycobacterium avium hominissuis; settings: Mycobacterium avium, 168 h, 7 days incubation, read-out: MIC, MAH CIT10/08
[9] = tested on: M. avium subsp. paratuberculosis CIT03; assay: microbe, parasite or virus in culture; assay type: cell-based; settings: Mycobacterium avium, 168 h; 7 days incubation, alamarBlue; MIC = IC90; read-out: MIC, MAP CIT03
[10] = ATCC25291, 336 h, 14-d/21-d, read-out: MIC against M. avium CNCTC My 330/80
[11] = ATCC25291, 336 h, 14 d cultivation, read-out: MIC, MA My 330/88
[12] = ATCC25291, 504 h, 21 d cultivation, read-out: MIC, MA My 330/88
[13] = ATCC12478, 168 h, 7 d cultivation
[14] = ATCC12478, 336 h, 14 d cultivation
[15] = ATCC12478, 504 h, 21 d cultivation
[16] = silica gel plates impregnated with 3% silicone oil in heptane
[17] = silica gel plates impregnated with 5% silicone oil in heptane
[18] = 336 h, 14-d/21-d cultivation, read-out: MIC against M. tuberculosis CNCTC My 331/88
[19] = 336 h, 14 d cultivation, read-out: MIC, MT My 331/88
[20] = 504 h, 21 d cultivation, read-out: MIC, MT My 331/88

Structure (SMILES) | MIC (M. kansasii CIT11/06) | MIC [1, 11] | MIC [1, 12] | log ε2(Ch-T) [2] | log ε1 [2] | log ε3 [2] | MIC [3] | MIC [4, 13] | MIC [4, 14] | MIC [4, 15] | MIC ([5]; 168 h, 7 d cultivation) | MIC ([5]; 336 h, 14 d cultivation) | MIC ([5]; 504 h, 21 d cultivation) | RM (RP-TLC) [6, 16] | RM (RP-TLC) [6, 17] | MIC [7, 18] | MIC [7, 19] | MIC [7, 20] | MIC [8] | MIC [9] | also measured
COC(=O)Nc1cccc(C(O)CN2CCN(c3ccccc3F)CC2)c1.Cl (centres unmarked) [8a, 1-(2-Hydroxy-2-{3-[(methoxycarbonyl)amino]phenyl}ethyl)-4-(2-fluorophenyl)piperazin-1-ium chloride] | > 610 µM | 500 µM | 500 µM | 4.30 | 4.30 | 3.45 | > 610 µM | 125 µM | 500 µM | 1000 µM | 125 µM | 500 µM | 500 µM | -0.16 | -0.05 | 250 µM | 250 µM | 250 µM | > 610 µM | > 610 µM | MIC [1, 10]: 500 µM
CCOC(=O)Nc1cccc(C(O)CN2CCN(c3ccccc3F)CC2)c1.Cl (centres unmarked) [8b, 1-(2-{3-[(Ethoxycarbonyl)amino]phenyl}-2-hydroxyethyl)-4-(2-fluorophenyl)piperazin-1-ium chloride] | 295 µM | 250 µM | 250 µM | 4.33 | 4.31 | 3.40 | > 590 µM | 62.5 µM | 250 µM | 250 µM | 62.5 µM | 250 µM | 250 µM | -0.03 | 0.11 |  | 125 µM | 125 µM | > 590 µM | > 590 µM | 
CCCOC(=O)Nc1cccc(C(O)CN2CCN(c3ccccc3F)CC2)c1.Cl (centres unmarked) [8c, 1-(2-Hydroxy-2-{3-[(propoxycarbonyl)amino]phenyl}ethyl)-4-(2-fluorophenyl)piperazin-1-ium chloride] | > 571 µM | 125 µM | 250 µM | 4.37 | 4.30 | 3.42 | > 571 µM |  | 125 µM | 125 µM | 32 µM | 125 µM | 125 µM | 0.42 | 0.44 |  | 62.5 µM | 62.5 µM | > 571 µM | > 571 µM | MIC ([4]; ATCC12478, 168 h): 62.5 µM
CCCCOC(=O)Nc1cccc(C(O)CN2CCN(c3ccccc3F)CC2)c1.Cl (centres unmarked) [8d, 1-(2-{3-[(Butoxycarbonyl)amino]phenyl}-2-hydroxyethyl)-4-(2-fluorophenyl)piperazin-1-ium chloride] | > 553 µM | 62.5 µM | 62.5 µM | 4.32 | 4.31 | 3.49 | > 553 µM | 32 µM | 62.5 µM | 62.5 µM | 16 µM | 32 µM | 62.5 µM |  | 0.64 | 32 µM | 32 µM | 32 µM | > 553 µM | > 53 µM | MIC [1, 10]: 62.5 µM; RM, lipophilicity index (RP-TLC) [6]: 0.01
COC(=O)Nc1ccc(C(O)CN2CCN(c3ccccc3F)CC2)cc1.Cl (centres unmarked) [8e, 1-(2-Hydroxy-2-{4-[(methoxycarbonyl)amino]phenyl}ethyl)-4-(2-fluorophenyl)piperazin-1-ium chloride] | > 610 µM | 250 µM | 500 µM | 4.67 | 4.61 | 3.67 | > 610 µM | 125 µM | 500 µM | 500 µM | 125 µM | 500 µM | 500 µM | 0.19 | 0.25 | 125 µM | 125 µM | 125 µM | > 610 µM | > 610 µM | 
CCOC(=O)Nc1ccc(C(O)CN2CCN(c3ccccc3F)CC2)cc1.Cl (centres unmarked) [8f, 1-(2-{4-[(Ethoxycarbonyl)amino]phenyl}-2-hydroxyethyl)-4-(2-fluorophenyl)piperazin-1-ium chloride] | 295 µM | > 250 µM | > 250 µM | 4.60 | 4.59 | 3.60 | > 590 µM | 125 µM | > 250 µM | > 250 µM |  | > 125 µM | > 125 µM | 0.31 | 0.41 |  | 32 µM | 62.5 µM | > 590 µM | > 590 µM | MIC ([5]; 168 h): 62.5 µM; RM, lipophilicity index (RP-TLC) [6]: 0.19
CCCOC(=O)Nc1ccc(C(O)CN2CCN(c3ccccc3F)CC2)cc1.Cl (centres unmarked) [8g, 1-(2-Hydroxy-2-{4-[(propoxycarbonyl)amino]phenyl}ethyl)-4-(2-fluorophenyl)piperazin-1-ium chloride] | > 571 µM | > 250 µM | > 250 µM | 4.54 | 4.47 | 3.52 | > 71 µM | 125 µM | > 250 µM | > 250 µM | 125 µM | > 250 µM | > 250 µM | 0.58 | 0.55 |  | 16 µM | 16 µM | > 571 µM | > 571 µM | RM, lipophilicity index (RP-TLC) [6]: 0.39
